Data taken from ChEMBL document CHEMBL3813650, “GSK114: A selective inhibitor for elucidating the biological role of TNNI3K” (Bioorg Med Chem Lett, 2016).

Legend:
[1] = target: T1, Serine/threonine-protein kinase TNNI3K (Homo sapiens, UniProt Q59H18); assay: Displacement of 5-({[2-({[3-({4-[(5-hydroxy-2-methylphenyl)amino]-2-pyrimidinyl}amino)phenyl]carbonyl}amino)-ethyl]amino}carbonyl)-2-(6-hydroxy-3-oxo-3H-xanthen-9-yl)benzoic acid from full length human TNNI3K expressed in baculovirus system incubated for 60 mins by fluorescence polarization assay
T1 sequence (Q59H18 whole entry): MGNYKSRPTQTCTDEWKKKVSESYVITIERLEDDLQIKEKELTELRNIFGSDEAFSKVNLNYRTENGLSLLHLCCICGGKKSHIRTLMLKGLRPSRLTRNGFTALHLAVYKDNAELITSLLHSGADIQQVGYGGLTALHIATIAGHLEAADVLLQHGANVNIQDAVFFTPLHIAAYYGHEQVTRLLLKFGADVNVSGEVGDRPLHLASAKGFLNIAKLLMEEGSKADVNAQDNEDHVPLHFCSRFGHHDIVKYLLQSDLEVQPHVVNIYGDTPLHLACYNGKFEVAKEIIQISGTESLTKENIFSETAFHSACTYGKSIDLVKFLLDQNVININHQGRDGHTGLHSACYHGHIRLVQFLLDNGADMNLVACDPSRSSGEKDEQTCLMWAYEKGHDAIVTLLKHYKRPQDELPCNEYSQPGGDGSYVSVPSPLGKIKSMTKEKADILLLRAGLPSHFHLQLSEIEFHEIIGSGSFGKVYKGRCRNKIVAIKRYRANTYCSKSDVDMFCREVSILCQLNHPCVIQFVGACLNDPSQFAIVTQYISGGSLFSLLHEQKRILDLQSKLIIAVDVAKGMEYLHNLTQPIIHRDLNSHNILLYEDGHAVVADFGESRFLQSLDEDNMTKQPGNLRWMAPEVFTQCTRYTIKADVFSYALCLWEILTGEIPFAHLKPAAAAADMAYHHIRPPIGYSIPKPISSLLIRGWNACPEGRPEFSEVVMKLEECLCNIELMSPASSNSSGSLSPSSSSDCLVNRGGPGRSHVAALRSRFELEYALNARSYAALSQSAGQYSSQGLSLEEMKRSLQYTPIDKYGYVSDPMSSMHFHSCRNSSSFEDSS

[2] = target: Serine/threonine-protein kinase B-raf (Homo sapiens, UniProt P15056, V600E); assay: Inhibition of full-length His6-tagged BRAF V600E mutant (2 to 766 residues) (unknown origin) expressed in baculovirus system by B-Raf accelerated MEK ATPase assay
Serine/threonine-protein kinase B-raf, sequence (P15056 2-766 V600E limits assumed): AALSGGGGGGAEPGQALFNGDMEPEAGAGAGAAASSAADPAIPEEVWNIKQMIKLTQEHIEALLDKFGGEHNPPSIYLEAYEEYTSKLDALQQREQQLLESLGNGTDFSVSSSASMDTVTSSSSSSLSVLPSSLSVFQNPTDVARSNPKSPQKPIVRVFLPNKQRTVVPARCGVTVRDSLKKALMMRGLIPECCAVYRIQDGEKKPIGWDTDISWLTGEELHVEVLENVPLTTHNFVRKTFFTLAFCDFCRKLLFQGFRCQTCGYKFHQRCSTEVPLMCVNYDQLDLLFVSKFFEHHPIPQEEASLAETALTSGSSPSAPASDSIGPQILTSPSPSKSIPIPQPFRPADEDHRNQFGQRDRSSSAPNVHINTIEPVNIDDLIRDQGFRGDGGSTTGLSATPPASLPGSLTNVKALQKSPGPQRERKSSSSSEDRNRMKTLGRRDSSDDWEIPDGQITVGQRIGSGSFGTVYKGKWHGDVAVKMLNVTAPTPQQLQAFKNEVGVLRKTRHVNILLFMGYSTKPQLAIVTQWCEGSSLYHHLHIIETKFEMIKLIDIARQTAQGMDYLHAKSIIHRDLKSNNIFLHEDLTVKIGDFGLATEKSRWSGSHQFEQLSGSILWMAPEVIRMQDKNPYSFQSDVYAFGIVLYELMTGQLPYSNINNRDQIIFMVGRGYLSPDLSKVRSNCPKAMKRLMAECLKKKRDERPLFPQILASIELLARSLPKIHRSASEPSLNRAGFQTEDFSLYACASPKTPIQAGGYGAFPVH

[3] = target: T1, Serine/threonine-protein kinase TNNI3K; assay: Inhibition of human myc-tagged TNNI3K autophosphorylation overexpressed in HEKMSR2 cells incubated for 30 mins by time resolved fluorescence assay; type: cell-based
Rattus norvegicus = assay: Dose normalized AUC in Sprague-Dawley rat at 2 mg/kg, po administered as gastric bolus by LC/MS/MS analysis; type: ADME, organism-based; conditions: in vivo
[4] = Half life in Sprague-Dawley rat at 2 mg/kg, po administered as gastric bolus by LC/MS/MS analysis; type: ADME, organism-based; conditions: in vivo
[5] = Cmax in Sprague-Dawley rat at 2 mg/kg, po administered as gastric bolus by LC/MS/MS analysis; type: ADME, organism-based; set-up: dose 2 mg/kg, route oral; conditions: in vivo
[6] = Fraction unbound in Sprague-Dawley rat plasma at 2 mg/kg, po administered as gastric bolus by LC/MS/MS analysis; type: ADME, organism-based

SMILES | IC50 [1] [nM] | IC50 [2] [nM] | IC50 [3] [nM] | AUC/dose (Rattus norvegicus) [kg·h/L] | half-life [4] [h] | Cmax [5] [ng/mL] | fraction unbound [6]
CNS(=O)(=O)c1ccc(N(C)C)c(Nc2ncnc3ccc(OC)cc23)c1 | 79 | 1000 | – | – | – | – | –
CNS(=O)(=O)c1ccc(N(C)C)c(Nc2ncnc3cc(OCCCOC)ccc23)c1 | < 10 | 800 | 25 | 0.03 | – | – | –
CNS(=O)(=O)c1ccc(N(C)C)c(Nc2ncnc3ccsc23)c1 | 200 | 1000 | – | – | – | – | –
CNS(=O)(=O)c1ccc(N(C)C)c(Nc2ncnc3cc(OC)cc(OC)c23)c1 | < 10 | 79 | 10 | 0.04 | – | – | –
CNS(=O)(=O)c1ccc(N(C)C)c(Nc2ncnc3ccc(N)cc23)c1 | 32 | 630 | – | – | – | – | –
CNS(=O)(=O)c1ccc(OCC(F)(F)F)c(Nc2ncnc3cc(OC(C)C)c(OC)cc23)c1 | 130 | 32000 | – | – | – | – | –
CNS(=O)(=O)c1ccc(OCC(F)(F)F)c(Nc2ncnc3cc(OC)cc(OC)c23)c1 | < 10 | 50 | 13 | 1.4 | – | – | –
CNS(=O)(=O)c1ccc(N(C)C)c(Nc2ncnc3[nH]ccc23)c1 | – | – | – | 0.59 | – | – | –
CNS(=O)(=O)c1ccc(OCC(F)(F)F)c(Nc2ncnc3cc(OC)c(OC)cc23)c1 | 25 | 130 | 160 | 1.9 | – | – | –
CNS(=O)(=O)c1ccc(N(C)C)c(Nc2ncnc3cc(OC)c(OC)cc23)c1 | 25 | 1000 | 100 | 0.18 | 3.6 | 130 | 0.202
CNc1ccc2ncnc(Nc3cc(S(=O)(=O)NC)ccc3N(C)C)c2c1 | 50 | 1000 | – | – | – | – | –
CNc1ccc2c(Nc3cc(S(=O)(=O)NC)ccc3N(C)C)ncnc2c1 | 40 | 10000 | – | – | – | – | –
CNS(=O)(=O)c1ccc(N(C)C)c(Nc2ncnc3cc(OCCCN4CCOCC4)ccc23)c1 | < 10 | 2500 | 25 | 0.02 | – | – | –
CNS(=O)(=O)c1ccc(N(C)C)c(Nc2ncnc3ccn(C)c23)c1 | 16 | 130 | 50 | 0.02 | – | – | –
CCOc1cc2ncnc(Nc3cc(S(=O)(=O)NC)ccc3OCC(F)(F)F)c2cc1OC | 13 | 100 | 50 | 1.7 | – | – | –
CNS(=O)(=O)c1ccc(OCC(F)(F)F)c(Nc2ncnc3cc(OCCCOC)ccc23)c1 | 25 | 160 | 320 | 0.07 | – | – | –
CNS(=O)(=O)c1ccc(N(C)C)c(Nc2ncnc3ccccc23)c1 | 200 | 250 | – | – | – | – | –
CNS(=O)(=O)c1ccc(N2CCOCC2)c(Nc2ncnc3[nH]cc(Cl)c23)c1 | < 10 | 0.6 | – | – | – | – | –
CNS(=O)(=O)c1ccc(OCC(F)(F)F)c(Nc2ncnc3cc(OCCCN4CCOCC4)ccc23)c1 | 13 | 1300 | 79 | 0 | – | – | –
CNS(=O)(=O)c1ccc(OCC(F)(F)F)c(Nc2ncnc3cc(OC)c(OC)c(OC)c23)c1 | < 10 | 79 | 63 | 0.24 | – | – | –
CNS(=O)(=O)c1ccc(N(C)C)c(Nc2ncnc3cc(N)ccc23)c1 | 63 | 4000 | – | – | – | – | –
CNS(=O)(=O)c1ccc(N(C)C)c(Nc2ncnc3cc[nH]c23)c1 | 25 | 250 | 500 | 0.01 | – | – | –
